{
  "source": "patent US9125898B2",
  "about": "“Acetam derivatives for pain relief” (NEUROTUNE AG, priority 2008, dated 2015)",
  "key": {"[1]": {"system": "oxaliplatin induced hyperalgesia in the rat", "assay": "Oxaliplatin induced hyperalgesia in the rat paw-pressure test", "format": "in vivo", "settings": "for Paw pressure, pre-test before all treatments: baseline, drug 100 mg/kg p.o.; for Paw pressure, 1a week - 30 min / Paw pressure, 2a week - 30 min / Paw pressure, 3a week - 30 min / Paw pressure, 3a week - 4 h / Paw pressure, 3a week - 8 h / Paw pressure, 3a week - 24 h: drug 100 mg/kg p.o. once daily", "procedure": "Drugs: The following substance was used: NT-13317 (batch No. RR0011-184A1 supplied by Brane Discovery Srl, Gerenzano Italy). NT-13317 was dissolved in DMSO 20%, 10% glucose and administered at the dose of 10, 30 and 100 mg/kg p.o.\nGabapentin (Sigma) was dissolved in 1% CMC (carboxymethylcellulose-Sigma) and orally administered at 100 mg/kg, and dissolved in saline and i.v. administered at 3 mg/kg.\nOxaliplatin model: A peripheral neuropathy was induced in adult rats, by administration of oxaliplatin (Tocris), at 2.4 mg/kg i.p. in saline once a day on days 1, 2, 3, 4, 5, 8, 9, 10, 11, 12, 15, 16, 17, 18, 19 (cumulative dose 36 mg/kg) according to [1].\nIn the first experiment NT-13317 and gabapentin were given chronically at the dose 100 mg/kg po starting 3 days before oxaliplatin and every day for 5 days/week for 3 weeks.\nA dose-response experiment was then performed with NT-13317 (10, 30 and 100 mg/kg po) using the same treatment schedule.\nPaw pressure test: Paw mechanical sensitivity was determined using a Randall & Selitto apparatus exerting a force that increases at constant rate (32 g/s). The stimulus at which rats withdrawn the paw was evaluated before and at different times after treatment. Results represent the mean of mechanical thresholds expressed as grams. To avoid any possible damage to the animal paw the maximum applied force was fixed at 240 g.\nStatistical analysis: All experimental results are given as the mean±S.E.M. An analysis of variance, ANOVA, followed by Fisher's protected least significant difference procedure for post hoc comparison, were used to verify significance between two means of behavioral results. Data were analyzed with the StatView software for the Macintosh (1992). P values≦0.05 were considered significant."}, "[2]": {"system": "chronic constriction injury induced hyperalgesia in the rat", "assay": "Chronic constriction injury induced hyperalgesia in the rat (paw-pressure test)", "format": "in vivo", "settings": "for Paw pressure, pre-test before all treatments: baseline, drug 100 mg/kg p.o.; for Paw pressure, 5 day 30 min / Paw pressure, 10 day 30 min / Paw pressure, 14 day 30 min / Paw pressure, 14 day 4 h / Paw pressure, 14 day 8 h / Paw pressure, 15 day 24 h / Paw pressure, 18 day 3 days: 100 mg/kg p.o. once a day for 14 days", "procedure": "In the repeated administration protocol, NT-13317 was orally administered at 100 mg/kg in 1% CMC once a day for 14 days starting from the day of sciatic nerve ligation.\nPeripheral rat mononeuropathy (Chronic constriction injury): Neuropathy was induced according to the procedure described by Bennett and Xie (Bennett G J, Xie Y K. A peripheral mononeuropathy in rat that produces disorders of pain sensation like those seen in man. Pain 1988; 33: 87-107).\nBriefly, rats were anaesthetized with chloral hydrate 400 mg/kg intraperitoneally (i.p.); under aseptic conditions, the right common sciatic nerve was exposed at the level of the middle thigh by blunt dissection. Proximal to the trifurcation, the nerve was carefully freed from the surrounding connective tissue and four chromic cat gut ligatures (4-0, Ethicon, Norderstedt, Germany) were tied loosely around it with about 1 mm spacing. After haemostasis was confirmed, the incision was closed in layers. Then animals were allowed to recover from anaesthesia and surgery and were kept one per cage with free access to water and standard laboratory chow.\nStatistical analysis: All experimental results are given as the mean±S.E.M. An analysis of variance, ANOVA, followed by Fisher's protected least significant difference procedure for post hoc comparison, were used to verify significance between two means of behavioural results. Data were analyzed with the StatView software for the Macintosh (1992). P values≦0.05 were considered significant.\nData of mechanical threshold (PWT) were converted to a percentage of the maximal possible effect (% MPE), according to Veneroni, O. et al. as follows: %MPE=(left dose PWT−left pre-dose control PWT)/(left naïve PWT−left pre-dose PWT)*100\nThe obtained % MPE were employed for ED50 calculation (obtained by Grafit v. 5.0), defined as the dose producing 50% reversal of mechanical allodynia."}},
  "note": "Entries after “also recorded” stand apart in the source; their conditions may differ.",
  "data": [
    {"smiles": "Cc1ccc(N2C(=O)CN3C(=O)CCC32)cc1", "note": "(stereo not shown) [NT-13317, 1-p-tolyl-tetrahydropyrrolo[1,2a]imidazole-2,5-dione]", "values": [
      {"measurement": "Dose-response experiment, 100 mg/kg", "setting": "[1]; 100 mg/kg p.o.", "result": "confirmed the results of the first experiment"},
      {"measurement": "Effect 4 h after administration at the end of the third week", "setting": "[1]; 100 mg/kg p.o.", "result": "retained maximal efficacy; also recorded: still a beneficial effect"},
      {"measurement": "Effect 8 hr after administration at the end of the third week", "setting": "[1]; 100 mg/kg p.o.", "result": "not any more significant"},
      {"measurement": "Reduction of mechanical hyperalgesia over three weeks of treatment (in words)", "setting": "[1]; 100 mg/kg p.o. once daily, 5 days/week for 3 weeks", "result": "statistically significant reduction of mechanical hyperalgesia; also recorded: maximal at the end of week 3"},
      {"measurement": "Dose-response experiment, lower doses", "setting": "[1]; 10 and 30 mg/kg p.o.", "result": "inactive"},
      {"measurement": "Paw pressure, pre-test before all treatments", "setting": "[1]; oxaliplatin i.p. group", "result": "58.9 ± 3.7", "unit": "g"},
      {"measurement": "Paw pressure, 1a week - 30 min", "setting": "[1]; oxaliplatin i.p.", "result": "68.7 ± 5.2", "unit": "g"},
      {"measurement": "Paw pressure, 2a week - 30 min", "setting": "[1]; oxaliplatin i.p.", "result": "74.3 ± 6.1", "unit": "g"},
      {"measurement": "Paw pressure, 3a week - 30 min", "setting": "[1]; oxaliplatin i.p.", "result": "79.2 ± 6.3", "unit": "g"},
      {"measurement": "Paw pressure, 3a week - 4 h", "setting": "[1]; oxaliplatin i.p.", "result": "74.3 ± 4.3", "unit": "g"},
      {"measurement": "Paw pressure, 3a week - 8 h", "setting": "[1]; oxaliplatin i.p.", "result": "53.5 ± 6.3", "unit": "g"},
      {"measurement": "Paw pressure, 3a week - 24 h", "setting": "[1]; oxaliplatin i.p.", "result": "40.6 ± 5.0", "unit": "g"},
      {"measurement": "Paw pressure, pre-test before all treatments", "setting": "[1]; vehicle i.p. (no oxaliplatin) group", "result": "60.6 ± 3.9", "unit": "g"},
      {"measurement": "Paw pressure, 1a week - 30 min", "setting": "[1]; vehicle i.p. (no oxaliplatin)", "result": "63.0 ± 4.3", "unit": "g"},
      {"measurement": "Paw pressure, 2a week - 30 min", "setting": "[1]; vehicle i.p. (no oxaliplatin)", "result": "66.1 ± 4.5", "unit": "g"},
      {"measurement": "Paw pressure, 3a week - 30 min", "setting": "[1]; vehicle i.p. (no oxaliplatin)", "result": "74.8 ± 5.4", "unit": "g"},
      {"measurement": "Paw pressure, 3a week - 4 h", "setting": "[1]; vehicle i.p. (no oxaliplatin)", "result": "73.8 ± 4.4", "unit": "g"},
      {"measurement": "Paw pressure, 3a week - 8 h", "setting": "[1]; vehicle i.p. (no oxaliplatin)", "result": "68.5 ± 3.7", "unit": "g"},
      {"measurement": "Paw pressure, 3a week - 24 h", "setting": "[1]; vehicle i.p. (no oxaliplatin)", "result": "69.9 ± 4.6", "unit": "g"},
      {"measurement": "Paw pressure, pre-test before all treatments", "setting": "[2]; CCI group", "result": "60.7 ± 2.7", "unit": "g"},
      {"measurement": "Paw pressure, 5 day 30 min", "setting": "[2]; CCI", "result": "41.6 ± 4.2", "unit": "g"},
      {"measurement": "Paw pressure, 10 day 30 min", "setting": "[2]; CCI", "result": "51.9 ± 5.2", "unit": "g"},
      {"measurement": "Paw pressure, 14 day 30 min", "setting": "[2]; CCI", "result": "53.4 ± 5.5", "unit": "g"},
      {"measurement": "Paw pressure, 14 day 4 h", "setting": "[2]; CCI", "result": "52.9 ± 5.2", "unit": "g"},
      {"measurement": "Paw pressure, 14 day 8 h", "setting": "[2]; CCI", "result": "51.6 ± 4.4", "unit": "g"},
      {"measurement": "Paw pressure, 15 day 24 h", "setting": "[2]; CCI", "result": "47.8 ± 4.7", "unit": "g"},
      {"measurement": "Paw pressure, 18 day 3 days", "setting": "[2]; CCI", "result": "43.6 ± 5.1", "unit": "g"},
      {"measurement": "Paw pressure, pre-test before all treatments", "setting": "[2]; SHAM group", "result": "62.3 ± 3.5", "unit": "g"},
      {"measurement": "Paw pressure, 5 day 30 min", "setting": "[2]; SHAM", "result": "57.7 ± 4.3", "unit": "g"},
      {"measurement": "Paw pressure, 10 day 30 min", "setting": "[2]; SHAM", "result": "55.8 ± 5.0", "unit": "g"},
      {"measurement": "Paw pressure, 14 day 30 min", "setting": "[2]; SHAM", "result": "59.2 ± 3.9", "unit": "g"},
      {"measurement": "Paw pressure, 14 day 4 h", "setting": "[2]; SHAM", "result": "57.2 ± 4.4", "unit": "g"},
      {"measurement": "Paw pressure, 14 day 8 h", "setting": "[2]; SHAM", "result": "63.2 ± 6.0", "unit": "g"},
      {"measurement": "Paw pressure, 15 day 24 h", "setting": "[2]; SHAM", "result": "61.6 ± 5.2", "unit": "g"},
      {"measurement": "Paw pressure, 18 day 3 days", "setting": "[2]; SHAM", "result": "60.7 ± 6.2", "unit": "g"},
      {"measurement": "Activity relative to gabapentin", "setting": "[2]; i.c.v. single administration", "result": "ten times more active than gabapentin"},
      {"measurement": "Effect on paw pressure test after the last administration (in words)", "setting": "[2]; p.o. 100 mg/kg once a day for 14 days from the day of sciatic nerve ligation", "result": "significant effect on paw pressure test up to 24 hr"}
    ]}
  ]
}
